Test results published in publication PMC7970304, “The Effects of Apelin and Elabela Ligands on Apelin Receptor Distinct Signaling Profiles” (Frontiers in Pharmacology, 2021).

Columns and labels:
Type in all cases: cell-based
[1] = system: APJ–β-arrestin 2 interaction; assay: BRET recruitment of β-arrestin 2 to APJ; conditions: for log (τ/KA): Black–Leff operational model; for Bias factor / Log (Bias): APJ-β-arrestin 2 over Ca2+, reference Apelin-13; for Log (Bias): footnote a = statistically insignificant
Procedure: (§1) To detect the potencies of different peptide ligands for APJ in living cells, real-time kinetic bioluminescence resonance energy transfer (BRET) assays were carried out as follows. HEK293 cells were grown to 80–90% confluence in 24-well plates and transiently transfected with various Rluc-, EYFP-, or Venus-tagged constructs ([Chen et al., 2014]; [Liu et al., 2016]). Approximately 36 h after transfection, the long-acting luciferase substrate EnduRen (E6481, Promega, Beijing Biotech Co., Ltd.) was added to each well at a final concentration of 60 μM and cells were incubated for 2 h at 37°C in a 5% CO2 incubator. BRET experiments were carried out using a Mithras LB941 plate reader (Berthold Technologies, Bad Wildbad, Germany) with three filters: a Rluc filter (400–475 nm), a Venus filter (515–575 nm) and an EGFP filter (500–550 nm) ([Liu et al., 2016]; [Ji et al., 2017]). The BRET ratio was calculated as the ratio of the emission at 535 ± 30 nm to that at 485 ± 20 nm. The results are expressed as the mBRET (mBRET = 1,000 × BRET ratio) ([Pfleger et al., 2006a]; [Pfleger et al., 2006b]). We use high glucose as a negative control group.
(§2) HEK293 cells were transiently co-transfected with the designated Rluc and GFP2 or Venus or EYFP-labeled constructs. Twenty-four hours after transfection, the cells were harvested in phenol red free medium containing 5% FCS in HEPES buffer and seeded in 96 well white microplate coated with poly-D-lysine. After 24 h, cells were washed twice in PBS and re-suspended in PBS containing 0.5 mM MgCl2 and 0.1% glucose. Coelenterazine h substrate was added at a final concentration of 5 μM in the total volume of 50 μL/well. Kinetic-response and dose-response curve of the recruitment of GRKs or β-arrestin 1 and β-arrestin 2 or AP2 to the APJ by six peptides measured by BRET. […] The BRET signals between receptor and GRKs/β-arrestin1 and 2/AP2 were recorded at 10 min (GRK2/5) or 15 min (β-arrestin1 and) or 30 min (AP2) after agonist stimulation. We use high glucose as a control group. BRET assays were performed as described previously ([Xue et al., 2018]). […] This signal is defined as the ligand induced BRET ratio.
(§3) The concentration-response data for the ligands in various assays were analyzed to determine the biases of the ligands for G protein dependent signaling or β-arrestin dependent signaling, according to a previously published method ([Kenakin et al., 2012]; [Hager et al., 2016]; [Hothersall et al., 2017]). Briefly, the concentration-response data for each ligand were fitted to the Black–Leff operation model to obtain the values of τ and K A, using the following equation: Response=[A]^nτ^nEm/[A]^nτ^n+([A]KA)^n where [A] is the concentration of the agonist, E m is the maximal response of the system, n is the transducer slope, and K A and τ describe the affinity and efficacy of the agonist, respectively. In the data fitting, the reparametrized form of the equation proposed by [Kenakin et al. (2012)] was used: Response=Em/1+exp{nln[1+exp(β1)/[A]]−nβ2} where β 1 and β 2 are the natural logarithm of K A and τ, respectively, and E m was set to 1. Thus, for each concentration-response curve, a non-linear regression was performed to fit the above equation to give β 1 and β 2 (as well as n). Log (τ/K A) values (“transduction coefficients”) for each ligand vs. each pathway were obtained. […] The ΔΔlog (τ/K A), or Log (Bias), which is the logarithm of the bias factor for a given pathway over a reference pathway (here, intracellular calcium release), was calculated for each ligand as Δlog (τ/K A)–Δlog (τ/K A)Calcium. The 95% confidence interval (CI) was expressed as the mean ± standard error; Log (Bias) values, whose 95% CI crosses 0, were considered statistically insignificant.
(§4) The data were analyzed using GraphPad Prism v5.0. All the data are presented as the mean ± SEM.

[2] = system: β-arrestin 1–AP2 interaction induced by APJ; assay: BRET interaction of β-arrestin 1 and β2-adaptin (AP2) induced by APJ; conditions: for log (τ/KA) / Δlog (τ/KA): APJ-β-arrestin1-AP2; for log (τ/KA): Black–Leff operational model; for Δlog (τ/KA): relative to Apelin-13; for Bias factor / Log (Bias): APJ-β-arrestin1-AP2 over Ca2+, reference Apelin-13; for Log (Bias): footnote a = statistically insignificant
Procedure: as §1, §2, §3, §4

APJ–GRK5 interaction = assay: BRET recruitment of GRK5 to APJ; conditions: for log (τ/KA) / Δlog (τ/KA): GRK5; for log (τ/KA): Black–Leff operational model; for Δlog (τ/KA): relative to Apelin-13; for Bias factor / Log (Bias): GRK5 over Ca2+, reference Apelin-13; for Log (Bias): footnote a = statistically insignificant
Procedure: as §1, §2, §3, §4

APJ–GRK2 interaction = assay: BRET recruitment of GRK2 to APJ; conditions: for log (τ/KA) / Δlog (τ/KA): APJ-GRK2; for log (τ/KA): Black–Leff operational model; for Δlog (τ/KA): relative to Apelin-13; for Bias factor / Log (Bias): APJ-GRK2 over Ca2+, reference Apelin-13; for Log (Bias): footnote a = statistically insignificant
Procedure: as §1, §2, §3, §4

Structure (SMILES) | log (τ/KA) ([1]; APJ-β-arrestin 2) | Bias factor [1] | Log (Bias) [1] | log (τ/KA) [2] | Δlog (τ/KA) [2] | Bias factor [2] | Log (Bias) [2] | log (τ/KA) (APJ–GRK5 interaction) | Δlog (τ/KA) (APJ–GRK5 interaction) | Bias factor (APJ–GRK5 interaction) | Log (Bias) (APJ–GRK5 interaction) | log (τ/KA) (APJ–GRK2 interaction) | Δlog (τ/KA) (APJ–GRK2 interaction) | Bias factor (APJ–GRK2 interaction) | Log (Bias) (APJ–GRK2 interaction) | further results
CSCC[C@H](NC(=O)[C@@H]1CSSC[C@H](NC(=O)[C@H](CC(N)=O)NC(=O)[C@H](Cc2c[nH]cn2)NC(=O)[C@H](CCCCN)NC(=O)[C@H](CCCNC(=N)N)NC(=O)[C@@H](N)CC(C)C)C(=O)N[C@@H](CC(C)C)C(=O)N[C@@H](CCC(N)=O)C(=O)N[C@@H](CCCNC(=N)N)C(=O)N[C@@H](CCCNC(=N)N)C(=O)N1)C(=O)N1CCC[C@H]1C(=O)N[C@@H](CC(C)C)C(=O)N[C@@H](Cc1c[nH]cn1)C(=O)N[C@@H](CO)C(=O)N[C@@H](CCCNC(=N)N)C(=O)N[C@H](C(=O)N1CCC[C@H]1C(=O)N[C@@H](Cc1ccccc1)C(=O)N1CCC[C@H]1C(=O)O)C(C)C [Elabela-21] | −2.1 ± 0.1 | 73.6 | 1.9 ± 0.2 | −1.9 ± 0.1 | −0.5 ± 0.2 | 13.2 | 1.1 ± 0.3 | −1.9 ± 0.3 | 0.5 ± 0.4 | 124.1 | 2.1 ± 0.5 | −1.5 ± 0.2 | 0.6 ± 0.3 | 169.0 | 2.2 ± 0.4 | Δlog (τ/KA) ([1]; APJ-β-arrestin 2, relative to Apelin-13): 0.3 ± 0.1
CSCC[C@H](NC(=O)[C@@H](NC(=O)[C@H](CC(C)C)NC(=O)[C@H](CC(N)=O)NC(=O)[C@@H](NC(=O)[C@@H]1CCCN1C(=O)[C@H](CCCNC(=N)N)NC(=O)[C@@H](N)CCC(N)=O)C(C)C)[C@@H](C)O)C(=O)N[C@@H](CCCNC(=N)N)C(=O)N[C@@H](CCCNC(=N)N)C(=O)N[C@@H](CCCCN)C(=O)N[C@@H](CC(C)C)C(=O)N[C@@H](CCCNC(=N)N)C(=O)N[C@@H](CCCCN)C(=O)N[C@@H](Cc1c[nH]cn1)C(=O)N[C@@H](CC(N)=O)C(=O)N[C@H]1CSSC[C@@H](C(=O)N[C@@H](CCSC)C(=O)N2CCC[C@H]2C(=O)N[C@@H](CC(C)C)C(=O)N[C@@H](Cc2c[nH]cn2)C(=O)N[C@@H](CO)C(=O)N[C@@H](CCCNC(=N)N)C(=O)N[C@H](C(=O)N2CCC[C@H]2C(=O)N[C@@H](Cc2ccccc2)C(=O)N2CCC[C@H]2C(=O)O)C(C)C)NC(=O)[C@H](CCCNC(=N)N)NC(=O)[C@H](CCCNC(=N)N)NC(=O)[C@H](CCC(N)=O)NC(=O)[C@H](CC(C)C)NC1=O [Elabela-32] | −0.4 ± 0.1 | 6,138.2 | 3.8 | −0.1 ± 0.1 | 1.3 ± 0.2 | 1,580.1 | 3.2 | −0.3 ± 0.3 | 2.1 ± 0.4 | 8,921.8 | 4.0 | −0.8 ± 0.2 | 1.3 ± 0.3 | 1,604.0 | 3.2 | Log (Bias) ([1]; listed as ELA-32): 3.8 ± 0.2; bias over calcium release ([1]; APJ–β-arrestin 2): > 6,000 fold; Log (Bias) ([2]; listed as ELA-32): 3.2 ± 0.3; bias over calcium release ([2]; β-arrestin 1–AP2): > 1,500 fold; bias over calcium release (APJ–GRK5 interaction; APJ–GRK5): > 6,000 fold; Log (Bias) (APJ–GRK5 interaction; listed as ELA-32): 4.0 ± 0.5; Log (Bias) (APJ–GRK2 interaction; listed as ELA-32): 3.2 ± 0.4; bias over calcium release (APJ–GRK2 interaction; APJ–GRK2): > 1,500 fold
